According to patent publication US7172751B2, “D-amino acid peptides” (Immunomedics, Inc., priority 2003, dated 2007):
*1 amine or outer side, *2 acyl side, *3 side chain or, on linkers, in order; H or OH if unused. Where a SMILES comes first, the peptide text is derived from it. Side-chain parts run from the residue outwards. [ ]: non-standard residue; d: D form. The star is where a group is joined. DOTA = O=C(O)CN1CCN(CC(=O)O)CCN(CC(=O)*)CCN(CC(=O)O)CC1; NH(2-(imidazol-4-yl)ethyl) = c1ncc(CCN*)[nH]1; Suc = O=C(CCC(=O)[*:2])[*:1]

Experiments:
[1] = Protocol: A mixture of the labeled peptide and mouse serum was made and incubated at 37° C. The mouse serum was fresh nude mouse serum obtained from (GSCC on the same day). The Indium-labeled peptide solution (50 μL) and 450 μL of the mouse serum were combined and vortexed. This was incubated at 37° C. for 18.0 hrs. Injections were made into the reverse phase HPLC at t0=0 hrs and t1=18.0 hrs.
Aliquots were withdrawn at various time points and examined by reverse phase HPLC and by size exclusion HPLC.
The peptide was monitored as described above by HPLC.

[2] = test system: GW-39 human colonic xenograft tumors; test: Biodistribution of 111In IMP 237 in mice pretargeted with hMN-14×m679; type: in vivo; conditions: pretargeting
Text: The animals were sacrificed at 3, 24, 48 hr post injection. The tumor to non-tumor ratios of the peptides in the pretargeting study are show in Table 2.

[3] = Pretargeting biodistribution of 111In-IMP 241, 281, 284 after 125I-hMN-14×m679; conditions: NCr nude, mouse, in vivo, total radioactivity
Text: NCr nudes: (NCI) from Taconic, 4 weeks of age
At the times shown above, 5 mice per time point will be necropsied. Tissues (tumor, liver, spleen, kidney, lungs, blood, stomach, large and small intestines) will be isolated, weighed and counted in the appropriate windows.

NC(=O)[C@H](CCCCNC(=O)CNC(=O)CCC(=O)NCCc1cnc[nH]1)NC(=O)[C@H](Cc1ccc(O)cc1)NC(=O)[C@H](CCCCNC(=O)CNC(=O)CCC(=O)NCCc1cnc[nH]1)NC(=O)[C@H](Cc1ccccc1)NC(=O)CN1CCN(CC(=O)O)CCN(CC(=O)O)CCN(CC(=O)O)CC1 [IMP 237, DOTA-Phe-Lys(HSG)-Tyr-Lys(HSG)-NH2] ({DOTA}-FK([Gly-Suc-NH(2-(imidazol-4-yl)ethyl)])YK([Gly-Suc-NH(2-(imidazol-4-yl)ethyl)])-NH2)
converted to the shorter retention time peak [1]: about 70%
% Injected/g Tissue ([2]; Blood, 3 hr After 111In): 2.42 ± 0.61 % Injected/g Tissue
% Injected/g Tissue ([2]; Blood, 24 hr After 111In): 0.73 ± 0.17 % Injected/g Tissue
% Injected/g Tissue ([2]; Blood, 48 hr After 111In): 0.17 ± 0.06 % Injected/g Tissue
% Injected/g Tissue ([2]; GW-39, 3 hr After 111In): 7.25 ± 2.79 % Injected/g Tissue
% Injected/g Tissue ([2]; GW-39, 24 hr After 111In): 8.38 ± 1.70 % Injected/g Tissue
% Injected/g Tissue ([2]; GW-39, 48 hr After 111In): 5.39 ± 1.46 % Injected/g Tissue
% Injected/g Tissue ([2]; Kidney, 3 hr After 111In): 3.59 ± 0.75 % Injected/g Tissue
% Injected/g Tissue ([2]; Kidney, 24 hr After 111In): 2.24 ± 0.40 % Injected/g Tissue
% Injected/g Tissue ([2]; Kidney, 48 hr After 111In): 1.27 ± 0.33 % Injected/g Tissue
% Injected/g Tissue ([2]; Lg. Int., 24 hr After 111In): 0.17 ± 0.03 % Injected/g Tissue
% Injected/g Tissue ([2]; Lg. Int., 48 hr After 111In): 0.13 ± 0.03 % Injected/g Tissue
% Injected/g Tissue ([2]; Liver, 3 hr After 111In): 0.58 ± 0.13 % Injected/g Tissue
% Injected/g Tissue ([2]; Liver, 24 hr After 111In): 0.62 ± 0.09 % Injected/g Tissue
% Injected/g Tissue ([2]; Liver, 48 hr After 111In): 0.61 ± 0.16 % Injected/g Tissue
% Injected/g Tissue ([2]; Lungs, 3 hr After 111In): 1.19 ± 0.26 % Injected/g Tissue
% Injected/g Tissue ([2]; Lungs, 24 hr After 111In): 0.44 ± 0.10 % Injected/g Tissue
% Injected/g Tissue ([2]; Lungs, 48 hr After 111In): 0.22 ± 0.06 % Injected/g Tissue
% Injected/g Tissue ([2]; Sm. Int., 3 hr After 111In): 0.65 ± 0.74 % Injected/g Tissue
% Injected/g Tissue ([2]; Sm. Int., 24 hr After 111In): 0.18 ± 0.03 % Injected/g Tissue
% Injected/g Tissue ([2]; Sm. Int., 48 hr After 111In): 0.11 ± 0.02 % Injected/g Tissue
% Injected/g Tissue ([2]; Spleen, 3 hr After 111In): 0.50 ± 0.14 % Injected/g Tissue
% Injected/g Tissue ([2]; Spleen, 24 hr After 111In): 0.71 ± 0.16 % Injected/g Tissue
% Injected/g Tissue ([2]; Spleen, 48 hr After 111In): 0.57 ± 0.15 % Injected/g Tissue
% Injected/g Tissue ([2]; Stomach, 3 hr After 111In): 0.18 ± 0.03 % Injected/g Tissue

NC(=O)[C@H](CCCCNC(=O)CNC(=O)CCC(=O)NCCc1cnc[nH]1)NC(=O)[C@@H](Cc1ccc(O)cc1)NC(=O)[C@H](CCCCNC(=O)CNC(=O)CCC(=O)NCCc1cnc[nH]1)NC(=O)[C@H](Cc1ccccc1)NC(=O)CN1CCN(CC(=O)O)CCN(CC(=O)O)CCN(CC(=O)O)CC1 [IMP 241, DOTA-Phe-Lys(HSG)-D-Tyr-Lys(HSG)-NH2, reference compound] ({DOTA}-FK([Gly-Suc-NH(2-(imidazol-4-yl)ethyl)])[dY]K([Gly-Suc-NH(2-(imidazol-4-yl)ethyl)])-NH2)
decomposed in mouse serum [1]: ~5%
tissue uptake at 24 h [3]: 0.28 %ID/g
